Entries after “also recorded” stand apart in the source; their conditions may differ. Read-outs that look alike come from different tables or passages of the source.
Assays:
[1] = target: ED-B containing fibronectin fragment (67B89) (Homo sapiens, UniProt P02751); assay: label-free interaction assay using BIACORE; format: binding
Protocol: Different concentrations of the variant were analyzed (for example, 0-200 nM of the variant, preferably 1041-D11) for binding to an ED-B containing fibronectin fragment (referred to as 67B89) immobilized on a CMS-chip (BIACORE®) using methods known to those skilled in the art. The obtained data were processed via the BIAevaluation software and 1:1-Langmuir-fitting. The kinetic binding constants were kon=7.6*10^5 M^−1s^−1; koff=7.7*10^−4 s^−1. The kinetic binding constants were kon=4.5*10^5 M^−1 s^−1; koff 5.0^*10^−4 s^−1.

EDB expressing cells = assay: binding specificity of the TNF-alpha fusion in cell culture (FIG. 17E); format: cell-based
F9 teratoma = format: in vivo; settings: for effect on tumor growth: stage 1
Protocol: To establish the therapeutic efficacy of 1041-D11-TNFalpha, the compound was tested on F9 teratoma (see Borsi et al., 2003 Blood 102, 4384-4392) in mouse models. […] F9 teratoma is an aggressive tumor with high vascular density. […] The experimental schedule for the efficacy study was adapted from Borsi, 2003.
Stage 1 defined the pharmacologic active and tolerable dose with endpoints relating to the ratio of tumor vs. body weight, weight loss and survival. […]
Stage 2 of the study defined the dose-dependent efficacy with Melphalan having as endpoint the retardation of tumor growth (animal weight loss>10%, tumor>10% body weight, ulceration of tumor). In the study, 1041D11/mTNFa, murine TNFa, in combination with melphalan were tested.

[2] = target: T1, Human fibronectin lacking the ED-B domain (h6789) (Homo sapiens, UniProt P02751); assay: concentration dependent ELISA, negative control fibronectin fragment without ED-B; format: binding; settings: conc.-ELISA, open circles
T1 construct: Human fibronectin lacking the ED-B domain (h6789)

L929 cells = assay: L929 apoptosis assay (TNF-alpha activity); format: cell-based
Protocol: The physiological TNF-alpha-activity of TNF-alpha-modified ubiquitin based ED-B binding fusions has been determined using the L929 apoptosis assay (Flick et al., 1984 J. Immunol. Methods. 68:167-175). In this assay, TNF-alpha efficiently stimulates cell death in actinomycinD sensitized cells at EC50 values in the picomolar range.
Cells have been resuspended in medium containing FBS and antibiotics. A cell suspension of 100 μl of a densitiy of 3.5×10^5 cells/ml has been seeded into the wells of a 96 well standard cell culture plate followed by over night incubation in a humidified CO2 incubator. Thereafter, the culture medium has been removed and 50 μl of medium containing FBS, ActinomycinD and antibiotics has been added to each well followed by a further 30 min incubation time. Thereafter, 50 μl of the test items, TNF-alpha-modified ubiquitin based ED-B binding-fusions or the human recombinant TNF-alpha control, at an appropriate concentration range of between 10^−7 and 10^−18 M, have been added. After a further 48 h incubation time the metabolic activity as a measure of cell survival was determined using WST-1 reagent (Roche).
Per test item at least three independent experiments have been conducted, each of them in triplicates. […]
The quantitative evaluation is based on the EC50-value, i.e. the value according to the test item concentration promoting the survival of half of the cells.

[3] = tested on: 48 tissues in FDA relevant panel; assay: tissue panel staining (48 tissues); format: binding
[4] = target: T2, fibronectin fragment 6789 without ED-B (Homo sapiens, UniProt P02751); assay: complex-formation analysis by SE-HPLC with 6789; format: binding; settings: 0.72 nmol each, 1 h at RT
T2 construct: fibronectin fragment 6789 without ED-B
Protocol: (§1) For the analysis of complex formation, Tricorn Superdex 75 5/150 GL columns (GE-Healthcare) (V=3 ml) was used, protein amount of 50 μl was applied. Further conditions: buffer: 1×PBS, pH 7.3, flow-rate: 0.3 ml/min, run: 45 min (injection of sample: after 15 min). Condition: 0.72 nmol 1041-D11 protein+0.72 nmol ED-B (herein referred to 67B89 or also as a negative control 6789) incubated for 1 h at RT; then applied to column for analysis of complex-formation. In FIGS. 14A and 14B, only the variant is shown in black, only the target ED-B is shown in blue, the variant binding building a complex with ED-B in pink.

[5] = target: T3, ED-B (F9 tumor vasculature) (Mus musculus, UniProt P11276); assay: immunohistochemistry on F9 tumor tissue sections; format: binding, mice; settings: seven samples; 10 nM to 100 nM / 500 nM
T3 construct: 1041-D11 specifically decorates the vasculature in tissue sections from F9 tumors; from tissue; host or cells: F9 tumor tissue sections from mice
Protocol: F9 tumor tissues from seven samples were evaluated. […] ED-B is a highly specific marker for tumor vasculature. The target protein EDB is located on the abluminal side of the vessels. 1041-D11 specifically decorates the vasculature in tissue sections from F9 tumors. […] Thus, fusion proteins based on modified ubiquitin specifically binding to ED-B are suitable an ED-B based targeted therapy for cancer.

[6] = target: fibronectin fragment 67B89 (ED-B) (Homo sapiens, UniProt P02751); assay: complex-formation analysis by SE-HPLC with 67B89; format: binding; settings: 0.72 nmol each, 1 h at RT
Protocol: as §1

murine Balb 3T3-cells = assay: binding to cell culture cells, Balb 3T3; format: cell-based; settings: 1, 10, 50 nM
Protocol: (§2) The binding of variant 1041-D11 to cell culture cells was tested. Different cell culture cells were analysed, including normal human fetal lung fibroblast cells having high expression levels of ED-B (Wi38 cells), a mouse embryonic fibroblast cell line (Balb 3T3); a stromal cell line, derived from mouse bone marrow (ST-2) monocytes/macrophages (RAW 264.7), NHDF cells and murine fibroblast cells (LM).
(§3) Similar experiments were performed using different cells types, for example Balb3T3 (ATCC, Kat-Nr. 30-2002), Raw (Lonza, Kat-Nr. BE12-115F/U1), ST-2 (Lonza, Ka t-Nr. BE12-115F/U1).

ED-B = ED-B (Homo sapiens, UniProt P02751); assay: ED-B binding analysis, method not stated (FIG. 7, general statements)
[7] = tested on: human fetal lung fibroblast cells (Wi38); assay: binding to cell culture cells, Wi38; format: cell-based; settings: immunofluorescence
Protocol: as §2
The negative control cell type NHDF are primary normal fibroblast cells, which express low levels of EDB-fibronectin (data not shown).
The negative control cells type NHDF are primary normal fibroblast cells, which express low levels of EDB-fibronectin. The cells were plated in chamber-slides (NUNC, 60000 cells/ml). To analyses the binding potential the cells were fixed with 100% MeOH for 5 min at −20° C. To block unspecific binding, the cells were incubated with 5% Horse-serum 1 h 37° C. The cells were tested with the variant 1041-D11, an ED-B specific antibody FV28 CH4/F1 as positive control or UB—2 as negative control with different concentrations 1 h RT. The proving occurred about an incubation with rabbit-a-Strep-Tag-IgG (obtained from GenScript A00875, 1:500) for 1 h and incubation with a-rabbit-IgG*Alexa488-AK (obtained from Invitrogen A11008, 1:1000) for 1 h. The nuclei were stained with DAPI. […] The first 2 lines show the variant and positive control on Wi38-cell line.

F9 tumor tissues = assay: accumulation in F9 tumor tissue; format: in vivo, mice; settings: time points between 30 min and 16 h
murine ST-2-cells = assay: binding to cell culture cells, ST-2; format: cell-based; settings: 1, 10, 50 nM
Protocol: as §2, §3

ED-B containing fibronectin fragment (67B89), sequence (P02751 1085-1537 limits assumed): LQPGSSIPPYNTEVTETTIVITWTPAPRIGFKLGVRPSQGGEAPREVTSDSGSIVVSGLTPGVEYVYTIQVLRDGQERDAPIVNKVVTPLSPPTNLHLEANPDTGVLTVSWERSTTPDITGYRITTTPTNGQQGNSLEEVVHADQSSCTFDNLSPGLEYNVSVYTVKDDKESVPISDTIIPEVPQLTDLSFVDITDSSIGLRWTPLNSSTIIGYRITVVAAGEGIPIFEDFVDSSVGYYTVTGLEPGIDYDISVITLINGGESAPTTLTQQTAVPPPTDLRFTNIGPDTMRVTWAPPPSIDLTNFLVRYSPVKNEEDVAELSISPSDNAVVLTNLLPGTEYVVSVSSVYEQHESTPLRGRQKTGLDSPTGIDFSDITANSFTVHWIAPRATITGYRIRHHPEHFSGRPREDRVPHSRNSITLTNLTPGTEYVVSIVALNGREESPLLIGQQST
T2 sequence (P02751 1089-1449 isoform P02751-1): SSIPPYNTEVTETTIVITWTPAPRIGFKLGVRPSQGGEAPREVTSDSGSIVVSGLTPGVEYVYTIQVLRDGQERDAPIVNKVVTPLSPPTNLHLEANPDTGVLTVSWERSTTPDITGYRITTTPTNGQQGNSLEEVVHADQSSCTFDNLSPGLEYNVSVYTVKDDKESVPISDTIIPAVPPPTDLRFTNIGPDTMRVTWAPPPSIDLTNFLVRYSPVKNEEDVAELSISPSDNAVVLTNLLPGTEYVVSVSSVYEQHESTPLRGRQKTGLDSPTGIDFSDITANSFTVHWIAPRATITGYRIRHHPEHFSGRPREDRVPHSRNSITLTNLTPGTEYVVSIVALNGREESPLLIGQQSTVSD
fibronectin fragment 67B89 (ED-B), sequence (P02751 1085-1537 limits assumed): as the sequence (P02751 1085-1537 limits assumed) above
T1 sequence (P02751 1085-1446 isoform P02751-1): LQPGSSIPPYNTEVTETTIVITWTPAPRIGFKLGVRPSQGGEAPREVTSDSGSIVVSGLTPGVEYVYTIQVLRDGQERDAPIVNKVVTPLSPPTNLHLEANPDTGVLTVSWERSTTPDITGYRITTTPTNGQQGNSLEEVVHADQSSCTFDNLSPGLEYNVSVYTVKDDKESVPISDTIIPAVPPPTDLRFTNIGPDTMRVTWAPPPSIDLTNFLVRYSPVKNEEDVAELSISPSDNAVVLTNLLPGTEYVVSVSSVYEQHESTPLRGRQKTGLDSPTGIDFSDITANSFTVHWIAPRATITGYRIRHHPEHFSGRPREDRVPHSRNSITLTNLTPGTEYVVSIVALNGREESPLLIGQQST
ED-B, sequence (P02751 1266-1356 limits assumed): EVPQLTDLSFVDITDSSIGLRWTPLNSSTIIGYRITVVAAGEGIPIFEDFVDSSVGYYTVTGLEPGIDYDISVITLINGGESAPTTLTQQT
T3 sequence (P11276 33-2477): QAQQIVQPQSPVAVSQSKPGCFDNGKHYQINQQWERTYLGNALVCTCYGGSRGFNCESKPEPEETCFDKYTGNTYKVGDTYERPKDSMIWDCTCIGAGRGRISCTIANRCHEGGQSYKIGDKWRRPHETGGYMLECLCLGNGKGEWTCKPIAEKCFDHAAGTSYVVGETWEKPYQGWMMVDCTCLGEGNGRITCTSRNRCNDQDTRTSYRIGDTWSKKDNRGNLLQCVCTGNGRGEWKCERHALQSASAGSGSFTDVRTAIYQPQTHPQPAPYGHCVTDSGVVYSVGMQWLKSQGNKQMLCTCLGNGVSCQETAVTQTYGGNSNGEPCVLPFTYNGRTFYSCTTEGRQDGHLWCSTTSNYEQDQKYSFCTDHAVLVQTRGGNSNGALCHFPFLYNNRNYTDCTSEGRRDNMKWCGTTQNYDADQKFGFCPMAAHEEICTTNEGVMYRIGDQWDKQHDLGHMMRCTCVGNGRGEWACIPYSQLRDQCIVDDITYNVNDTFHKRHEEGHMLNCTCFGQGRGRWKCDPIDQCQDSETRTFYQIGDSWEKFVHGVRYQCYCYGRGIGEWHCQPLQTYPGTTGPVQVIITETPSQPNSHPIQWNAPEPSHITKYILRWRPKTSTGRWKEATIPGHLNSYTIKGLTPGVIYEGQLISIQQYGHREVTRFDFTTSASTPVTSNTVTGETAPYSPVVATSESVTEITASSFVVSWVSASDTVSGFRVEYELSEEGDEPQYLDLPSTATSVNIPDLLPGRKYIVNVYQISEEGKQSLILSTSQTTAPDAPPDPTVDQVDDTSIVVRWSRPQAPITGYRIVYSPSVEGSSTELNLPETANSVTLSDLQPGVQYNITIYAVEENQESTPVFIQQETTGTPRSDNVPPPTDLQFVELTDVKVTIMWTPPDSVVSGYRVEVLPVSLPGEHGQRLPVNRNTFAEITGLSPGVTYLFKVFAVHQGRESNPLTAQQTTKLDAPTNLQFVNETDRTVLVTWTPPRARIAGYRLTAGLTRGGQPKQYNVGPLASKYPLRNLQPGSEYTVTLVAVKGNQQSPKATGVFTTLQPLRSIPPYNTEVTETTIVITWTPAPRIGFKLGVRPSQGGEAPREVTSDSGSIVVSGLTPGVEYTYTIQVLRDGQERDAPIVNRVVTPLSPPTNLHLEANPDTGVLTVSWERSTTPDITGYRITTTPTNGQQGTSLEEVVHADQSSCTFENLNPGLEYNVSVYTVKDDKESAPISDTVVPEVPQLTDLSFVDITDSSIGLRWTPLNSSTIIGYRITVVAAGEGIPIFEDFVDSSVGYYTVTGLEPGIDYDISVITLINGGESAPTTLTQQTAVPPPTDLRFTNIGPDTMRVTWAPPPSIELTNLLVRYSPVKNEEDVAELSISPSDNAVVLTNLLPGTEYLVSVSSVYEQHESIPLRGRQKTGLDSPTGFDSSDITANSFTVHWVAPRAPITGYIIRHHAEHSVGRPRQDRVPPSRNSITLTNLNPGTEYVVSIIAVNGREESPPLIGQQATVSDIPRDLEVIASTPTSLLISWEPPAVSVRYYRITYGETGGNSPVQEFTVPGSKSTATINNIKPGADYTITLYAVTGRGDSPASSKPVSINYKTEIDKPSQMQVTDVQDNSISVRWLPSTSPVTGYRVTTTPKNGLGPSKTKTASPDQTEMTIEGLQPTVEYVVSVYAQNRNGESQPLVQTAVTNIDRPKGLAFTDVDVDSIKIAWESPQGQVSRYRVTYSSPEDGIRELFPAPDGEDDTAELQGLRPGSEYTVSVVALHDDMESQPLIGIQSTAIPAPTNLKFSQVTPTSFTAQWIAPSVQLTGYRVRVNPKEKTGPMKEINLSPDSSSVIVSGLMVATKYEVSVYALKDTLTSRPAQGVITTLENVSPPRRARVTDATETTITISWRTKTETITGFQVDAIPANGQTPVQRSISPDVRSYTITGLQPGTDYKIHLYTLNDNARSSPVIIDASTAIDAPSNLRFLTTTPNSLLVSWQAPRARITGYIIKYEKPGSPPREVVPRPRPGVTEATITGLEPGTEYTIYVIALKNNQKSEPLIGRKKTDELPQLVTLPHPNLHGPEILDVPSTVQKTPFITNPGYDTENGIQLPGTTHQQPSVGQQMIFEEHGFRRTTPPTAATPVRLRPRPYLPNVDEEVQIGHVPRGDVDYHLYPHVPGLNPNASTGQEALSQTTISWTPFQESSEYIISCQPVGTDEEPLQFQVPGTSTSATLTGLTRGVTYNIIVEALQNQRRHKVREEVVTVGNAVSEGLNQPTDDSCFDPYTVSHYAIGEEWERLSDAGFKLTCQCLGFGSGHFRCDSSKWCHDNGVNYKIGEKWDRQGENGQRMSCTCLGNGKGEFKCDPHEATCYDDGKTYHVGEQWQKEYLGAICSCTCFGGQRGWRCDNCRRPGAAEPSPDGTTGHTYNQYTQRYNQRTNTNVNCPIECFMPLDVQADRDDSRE

Substance	kon [1] [M⁻¹ s⁻¹]	binding to EDB expressing cells (EDB expressing cells; target(+))	cross reaction in serum without ED-B (EDB expressing cells; target(−))	relative tumor growth (F9 teratoma; in combination with Melphalan, 7 days, versus mTNFalpha with Melphalan or Melphalan alone)	effect on tumor growth (F9 teratoma; highest dose (6.75 μmol/g))	effect on tumor growth (F9 teratoma; lowest dose (0.25 pmol/g))	binding to negative control fragment 6789 [2]	apoptosis inducing TNF-alpha activity (L929 cells)	koff [1] [s⁻¹]	unspecific staining in 48 tissues [3]	complex formation with 6789 (no ED-B) [4]	staining of F9 tumor tissue sections [5]	complex formation with 67B89 (ED-B) [6]	binding on fixed murine Balb 3T3-cells (murine Balb 3T3-cells)	ED-B binding activity (ED-B)	binding on vital Wi38 cells ([7]; different concentrations)	binding on fixed Wi38 cells ([7]; 58.7 nM and 587 nM)	accumulation in F9 tumor tissue (F9 tumor tissues)	binding on fixed murine ST-2-cells (murine ST-2-cells)
1041-D11-TNFalpha: fusion protein of hetero-dimeric variant 1041-D11 and TNFα (mouse or human)	450000	specifically binds	no cross reaction	reduces the relative tumor growth more efficiently	no suppressing effect on tumor growth	seems to retard tumor growth	not bound	as active as free TNF-alpha	–	–	–	–	–	–	–	–	–	–	–
1041-D11: hetero-dimeric ubiquitin variant: K6W, L8W, K63R, E64K, S65F, T66P; second module K6T, L8Q, Q62W, K63S, E64N, S65W, T66E, Q2R	760000	–	–	–	–	–	no binding	–	0.00077	no unspecific staining	no significant binding; also recorded: no complex	ED-B specific vascular staining	formation of a complex; also recorded: builds a complex	binds to murine Balb 3T3 cells with high specificity	superior ED-B binding activity	binds to vital Wi38 cells with high specificity	binds to fixed Wi38 cells with high specificity	enriched	binds to murine Balb ST-2 cells with high specificity
